Data as given in EP0751957B1, “PEPTIDE FRAGMENTS OF MICROBIAL STRESS PROTEINS AND PHARMACEUTICAL COMPOSITION MADE THEREOF FOR THE TREATMENT AND PREVENTION OF INFLAMMATORY DISEASES” (priority 1994, dated 2004).

Tests used:
Mt-PLNC = experiment: T cell proliferation assay, Mt-PLNC; assay type: cell-based, Lewis rats; details: PLNC from rats immunised with Mt mixed with DDA
Description: (§1) Immunisations and primed lymph node populations: Rats were immunised with either Mt or hsp65. Mt was suspended at 5 mg/ml in IFA or DDA and 100 µl injected in each hind footpad (i.e. 500 µg/footpad, 1 mg/rat). Hsp65 (1 mg/ml in PBS) was mixed 1:1 with DDA and 100 µl injected (i.e. 50 µg/footpad, 100 µg/rat). Ten to 21 days later, draining popliteal lymph nodes were removed, disaggregated, washed three times and used as a source of primed lymph node cells (PLNC). In control experiments splenocytes and lymph nodes from unimmunised rats and PLNC from rats immunised with IFA or DDA/PBS alone were used.
T cell proliferation assays: PLNC were cultured in triplicate in 200 µl flat bottom microtitre wells (Costar) at 2 x 10^5 cells per well with or without antigen. In initial experiments PLNC were tested for responsiveness to individual peptides at concentrations of 5 and 20 µg/ml, and Mt, hsp65 and PPD over a range of concentrations. Concanavalin A (2 µg/ml) was used as a positive control for T cell proliferation. Cultures were incubated for 96 h at 37°C in a humidified atmosphere of 5% CO2. Cultures were pulsed for the final 16 h with [^3H] TdR (Amersham, U.K., 1 uCi/well) and TdR uptake measured using a liquid scintillation β counter. […] Results are expressed as mean counts per minute (cpm) of triplicate cultures. […]

[1] = tested on: Peptide-specific T cell lines; experiment: T cell proliferation assay, peptide-specific T cell lines from peptide-immunised rats; assay type: cell-based, Lewis rats; details: T cell line from 176-190-immunised PLNC; in vitro peptide 10 µg/ml
Description: (§2) T cell proliferation assays: PLNC were cultured in triplicate in 200 µl flat bottom microtitre wells (Costar) at 2 x 10^5 cells per well with or without antigen. In initial experiments PLNC were tested for responsiveness to individual peptides at concentrations of 5 and 20 µg/ml, and Mt, hsp65 and PPD over a range of concentrations. Concanavalin A (2 µg/ml) was used as a positive control for T cell proliferation. Cultures were incubated for 96 h at 37°C in a humidified atmosphere of 5% CO2. Cultures were pulsed for the final 16 h with [^3H] TdR (Amersham, U.K., 1 uCi/well) and TdR uptake measured using a liquid scintillation β counter. Assays using T cell lines were performed as above using 2 x 10^4 line cells per well with irradiated (30 Gy) syngeneic accessory cells (either 3 x 10^5 splenocytes/well or 10^6 thymocytes/well). Results are expressed as mean counts per minute (cpm) of triplicate cultures. In experiments where responses to Ag were low, responses were considered significant if the stimulation index (S.I. = […]) was greater than two and Student's t tests gave p < 0.01.
T cell lines: T cell lines with specificity for mycobacterial hsp65 or peptides were generated by bulk stimulation of either hsp65-PLNC or Mt-PLNC. PLNC were cultured at 5 x 10^6/ml in culture medium supplemented with 2% normal rat serum (NRS) in the presence of 10 µg/ml Ag. After three days viable cells were harvested using a ficoll-isopaque gradient and cultured for a further four days in culture medium + 5% FCS and 5% TCGF (Con A-activated rat spleen supernatant). Seven days after initial stimulation lines were restimulated with irradiated spleen accessory cells and 10 µg/ml Ag in culture medium + NRS. Lines were maintained ir. this seven day restimulation cycle. Short term epitope-specific T cell lines were also generated from rats immunised with synthetic peptides. Peptide-PLNC were cultured as above in the presence of 10 µg/ml peptide.
Bulk stimulation generated T cell lines to eight of the nine peptides tested. These eight lines were tested for specificity after four in vitro restimulations (Table II). All responded to the immunising peptide and, to some extent, to hsp65.
T cell responses by immunisation with hsp65 peptides. Rats were immunised with synthetic peptides containing individual hsp65 epitopes (100 µg peptide/DDA per rat). Ten days later PLNC were isolated and tested for responses to overlapping peptides (20 µg/ml). Peptide-specific T cell lines were generated by bulk in vitro stimulation of PLNC with immunising peptide. Lines were tested for responses to overlapping peptides (10 µg/ml). […] Results are expressed as mean cpm of triplicate cultures. All SEM were less than 20%.

hsp65-PLNC = experiment: T cell proliferation assay, hsp65-PLNC; assay type: cell-based, Lewis rats; details: PLNC from hsp65-immunised rats; peptides 5 and 20 µg/ml
Description: as §1, §2
Hsp65-PLNC were analysed for responsiveness to a panel of peptides covering the entire sequence of hsp65 (Fig. 3a). […] In terms of magnitude of response, three regions of the molecule (residues 176-190, 211-230 and 221-240) appeared to contain the "dominant" T cell epitopes, while regions 86-100. 251-270, 396-410 and 506-525 contained "subdominant" or minor epitopes.

adjuvant arthritis = experiment: Adjuvant arthritis (AA) induced with Mt in IFA, clinical arthritis score; assay type: in vivo, Lewis rats; details: 100 µg peptide in DDA, hind footpads, 7 days prior to AA induction with Mt
Description: Induction and clinical assessment of experimental arthritis: Arthritis was induced by a single intradermal injection in the base of the tail. AA was induced with 0.5 mg Mt suspended in 100 µl IFA. CP20961 arthritis was induced with 2 mg CP20961 in 100 µl light mineral oil (Sigma). Rats were examined daily for clinical signs of arthritis. Severity of arthritis was assessed by scoring each paw from zero to four based on degree of swelling, erythema and deformity of the joints. Thus the maximum possible arthritis score was 16.
Modulation of arthritis with hsp65 peptides and epitope-specific T cell lines: Synthetic peptides corresponding to eight T cell epitopes present in mycobacterial hsp65 were tested for protective effects on arthritis development. Rats were immunised with 100 µg of individual peptide seven days prior to arthritis induction. Peptides were immunised in each hind footpad in 10 mg/ml DDA (50 µl/pad). Control rats received only PBS/DDA. Epitope-specific T cell lines were also tested for protective activity by intravenous administration of lines at the time of arthritis induction. T cell lines were restimulated in vitro with irradiated spleen APC and specific peptide. Four days later T cell blasts were harvested by ficoll gradient, washed and applied to a second ficoll gradient to remove any contaminating APC. T cells were washed twice in wash medium and twice in PBS and finally suspended at 2.5x10^7/ml in PBS. Immediately prior to injection of Mt, 200 µl (i.e. 5x10^6) T cells were injected i.v. in the tail vein.
The effects of preimmunisation with synthetic peptides containing individual epitopes on the development of AA were analysed (Fig. 7). The eight peptides which primed for epitope specific T cells were tested. Rats were immunised with 100 µg of peptide 7 days prior to AA-induction with Mt.

[2] = tested on: hsp65-specific T cell line; experiment: T cell proliferation assay, hsp65-specific T cell line; assay type: cell-based, Lewis rats; details: short term lines from ten day hsp65-PLNC, seven days after first restimulation
Description: as §2
T cell lines: T cell lines with specificity for mycobacterial hsp65 or peptides were generated by bulk stimulation of either hsp65-PLNC or Mt-PLNC. PLNC were cultured at 5 x 10^6/ml in culture medium supplemented with 2% normal rat serum (NRS) in the presence of 10 µg/ml Ag. […]

peptide 176-190: synthetic 15mer of mycobacterial hsp65 containing the AA-associated epitope 180-188
Mt/DDA-PLNC response to hsp65 peptide (Mt-PLNC): dominant | CPM T Cell Line [1]: 31400 cpm | hsp65-PLNC proliferative response to peptide (hsp65-PLNC): dominant | protection against AA development after peptide preimmunisation (adjuvant arthritis): no effect on AA onset | hsp65-specific T cell line response to peptide [2]: strong responses
